Test results taken from ChEMBL document CHEMBL1201862, “PubChem BioAssay data set” (2004).
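Where inhibition never reached the appropriate level, the endpoint shown equals the highest concentration tested. Otherwise, values were interpolated linearly from a five-concentration, 48-hour dose response in 96-well plates. At the GI50, growth is halved.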 Active and inactive are the calls of the source. Cut-off read from the data, not from the text of the source: active = GI50 up to about 1.1 µM and inactive = higher.

Key:
Assay in all cases: NCI-60 cell line screen, 48 h
786-0 = tested on: 786-0
A498 = tested on: A498
A549 = tested on: A549
ACHN = tested on: ACHN
BT-549 = tested on: BT-549
CAKI-1 = tested on: CAKI-1
COLO 205 = tested on: COLO 205
DU-145 = tested on: DU-145
EKVX = tested on: EKVX
HCC 2998 = tested on: HCC 2998
HCT-116 = tested on: HCT-116
HCT-15 = tested on: HCT-15
HL-60 = tested on: HL-60
HOP-62 = tested on: HOP-62
HOP-92 = tested on: HOP-92
HT-29 = tested on: HT-29
Hs-578T = tested on: Hs-578T
IGROV-1 = tested on: IGROV-1
K562 = tested on: K562
KM12 = tested on: KM12
LOX IMVI = tested on: LOX IMVI
M14 = tested on: M14
MCF7 = tested on: MCF7
MDA-MB-231 = tested on: MDA-MB-231
MDA-MB-435 = tested on: MDA-MB-435
MDA-N = tested on: MDA-N
MOLT-4 = tested on: MOLT-4
Malme-3M = tested on: Malme-3M
NCI-H226 = tested on: NCI-H226
NCI-H23 = tested on: NCI-H23
NCI-H460 = tested on: NCI-H460
NCI-H522 = tested on: NCI-H522
NCI/ADR-RES = tested on: NCI/ADR-RES
OVCAR-3 = tested on: OVCAR-3
OVCAR-4 = tested on: OVCAR-4
OVCAR-5 = tested on: OVCAR-5
OVCAR-8 = tested on: OVCAR-8
PC-3 = tested on: PC-3
RPMI-8226 = tested on: RPMI-8226
RXF 393 = tested on: RXF 393
SF-268 = tested on: SF-268
SF-295 = tested on: SF-295
SF-539 = tested on: SF-539
SK-MEL-28 = tested on: SK-MEL-28
SK-MEL-2 = tested on: SK-MEL-2
SK-MEL-5 = tested on: SK-MEL-5
SK-OV-3 = tested on: SK-OV-3
SN12C = tested on: SN12C
SNB-19 = tested on: SNB-19
SNB-75 = tested on: SNB-75
SR = tested on: SR
SW-620 = tested on: SW-620
T47D = tested on: T47D
TK-10 = tested on: TK-10
U-251 = tested on: U-251
UACC-257 = tested on: UACC-257
UACC-62 = tested on: UACC-62
UO-31 = tested on: UO-31
CCRF-CEM = tested on: CCRF-CEM

Measured: GI50

CN(C)C=O.O=C(Nc1nnn[nH]1)c1nc(O)cc(-c2ccccc2)n1
> 100 µM: HCT-15
inactive: 786-0 > 100 µM | A498 > 100 µM | A549 > 100 µM | ACHN > 100 µM | BT-549 > 100 µM | CAKI-1 > 100 µM | COLO 205 > 100 µM | DU-145 > 100 µM | EKVX > 100 µM | HCC 2998 > 100 µM | HCT-116 > 100 µM | HL-60 > 100 µM | HOP-62 > 100 µM | HOP-92 > 100 µM | HT-29 > 100 µM | Hs-578T > 100 µM | IGROV-1 > 100 µM | K562 > 100 µM | KM12 > 100 µM | LOX IMVI > 100 µM | M14 > 100 µM | MCF7 > 100 µM | MDA-MB-231 > 100 µM | MDA-MB-435 > 100 µM | MDA-N > 100 µM | MOLT-4 > 100 µM | Malme-3M > 100 µM | NCI-H226 > 100 µM | NCI-H23 > 100 µM | NCI-H460 > 100 µM | NCI-H522 > 100 µM | NCI/ADR-RES > 100 µM | OVCAR-3 > 100 µM | OVCAR-4 > 100 µM | OVCAR-5 > 100 µM | OVCAR-8 > 100 µM | PC-3 > 100 µM | RPMI-8226 > 100 µM | RXF 393 > 100 µM | SF-268 > 100 µM | SF-295 > 100 µM | SF-539 > 100 µM | SK-MEL-28 > 100 µM | SK-MEL-2 > 100 µM | SK-MEL-5 > 100 µM | SK-OV-3 > 100 µM | SN12C > 100 µM | SNB-19 > 100 µM | SNB-75 > 100 µM | SR > 100 µM | SW-620 > 100 µM | T47D > 100 µM | TK-10 > 100 µM | U-251 > 100 µM | UACC-257 > 100 µM | UACC-62 > 100 µM | UO-31 > 100 µM

CCCCCC(C)SC1(C(=O)OC)CC(OC(C)=O)C(NC(C)=O)C([C@H](OC(C)=O)[C@@H](COC(C)=O)OC(C)=O)O1 (some centres not stated)
inactive: 786-0 47 µM | A498 67.1 µM | A549 21.2 µM | ACHN > 100 µM | BT-549 55.6 µM | CAKI-1 93.3 µM | DU-145 > 100 µM | HCC 2998 30.2 µM | HCT-116 43.9 µM | HL-60 42.5 µM | HOP-62 > 100 µM | HOP-92 44.4 µM | HT-29 22.5 µM | Hs-578T 29.4 µM | IGROV-1 > 100 µM | K562 92.9 µM | KM12 66.7 µM | M14 71 µM | MCF7 43.7 µM | MDA-MB-231 41.9 µM | MDA-MB-435 70.1 µM | MDA-N 90.6 µM | MOLT-4 27.3 µM | Malme-3M 44.1 µM | NCI-H226 40.6 µM | NCI-H23 > 100 µM | NCI-H460 78.7 µM | NCI-H522 51.2 µM | NCI/ADR-RES > 100 µM | OVCAR-3 90.4 µM | OVCAR-5 > 100 µM | OVCAR-8 83.2 µM | PC-3 67.3 µM | RPMI-8226 33.7 µM | RXF 393 88.1 µM | SF-268 > 100 µM | SF-295 > 100 µM | SF-539 22.3 µM | SK-MEL-28 > 100 µM | SK-MEL-5 91.2 µM | SN12C > 100 µM | SNB-19 > 100 µM | SNB-75 > 100 µM | SR 64 µM | SW-620 > 100 µM | T47D 45.6 µM | TK-10 > 100 µM | U-251 > 100 µM | UACC-257 33 µM | UO-31 38.5 µM
34.5 µM: HCT-15
active: SK-MEL-2 0.245 µM

CN(C)CC1=Nc2cccc3cccc(c23)N1
active: CCRF-CEM 0.235 µM
23.8 µM: HCT-15
inactive: 786-0 12.4 µM | A498 14.9 µM | A549 67.8 µM | ACHN 14.9 µM | BT-549 17.6 µM | CAKI-1 21.5 µM | COLO 205 2.95 µM | DU-145 17.1 µM | EKVX 17.2 µM | HCC 2998 17.2 µM | HCT-116 8.15 µM | HL-60 13.2 µM | HOP-62 > 100 µM | HOP-92 18.8 µM | HT-29 22.8 µM | Hs-578T 34.7 µM | IGROV-1 18.5 µM | K562 16.7 µM | KM12 25.6 µM | LOX IMVI 19.4 µM | M14 19.5 µM | MCF7 13.1 µM | MDA-MB-231 17.8 µM | MDA-MB-435 20.2 µM | MDA-N 18.4 µM | Malme-3M 22 µM | NCI-H226 20.3 µM | NCI-H23 22.9 µM | NCI-H460 34.3 µM | NCI-H522 1.89 µM | NCI/ADR-RES 33.7 µM | OVCAR-3 16.4 µM | OVCAR-4 13.3 µM | OVCAR-5 17.4 µM | OVCAR-8 33.8 µM | PC-3 17 µM | RPMI-8226 3.3 µM | RXF 393 17.9 µM | SF-268 18.9 µM | SF-295 > 100 µM | SF-539 19.8 µM | SK-MEL-28 22.1 µM | SK-MEL-2 17.4 µM | SK-MEL-5 15.4 µM | SK-OV-3 > 100 µM | SN12C 16.8 µM | SNB-19 > 100 µM | SNB-75 16.7 µM | SR 17.9 µM | SW-620 4.08 µM | T47D 6.11 µM | TK-10 18.4 µM | U-251 16.8 µM | UACC-257 16.9 µM | UACC-62 16.1 µM | UO-31 9.16 µM

C=CC1ON(Cc2ccccc2)CCc2cc(OC)c(OC)cc21 (configuration not stated)
48.2 µM: HCT-15
inactive: 786-0 > 100 µM | A498 15.2 µM | A549 44.2 µM | ACHN > 100 µM | BT-549 28.1 µM | CAKI-1 70.5 µM | CCRF-CEM 45.7 µM | COLO 205 41.6 µM | DU-145 > 100 µM | EKVX 63.4 µM | HCC 2998 35.5 µM | HCT-116 45.2 µM | HL-60 26.1 µM | HOP-62 85.5 µM | HOP-92 46.5 µM | HT-29 42.4 µM | Hs-578T > 100 µM | IGROV-1 78 µM | K562 42 µM | KM12 27 µM | LOX IMVI 43.3 µM | M14 49.7 µM | MCF7 > 100 µM | MDA-MB-231 81.1 µM | MDA-MB-435 24.5 µM | MDA-N 29 µM | MOLT-4 34.7 µM | Malme-3M 19.2 µM | NCI-H226 > 100 µM | NCI-H23 53.3 µM | NCI-H460 57 µM | NCI-H522 41.5 µM | NCI/ADR-RES 45.5 µM | OVCAR-3 35.4 µM | OVCAR-5 > 100 µM | OVCAR-8 > 100 µM | PC-3 48.9 µM | RPMI-8226 30.3 µM | SF-268 46.6 µM | SF-295 31.7 µM | SF-539 83.4 µM | SK-MEL-28 36.9 µM | SK-MEL-5 16.1 µM | SK-OV-3 56.5 µM | SN12C 77.4 µM | SNB-19 > 100 µM | SNB-75 72.4 µM | SR 25.7 µM | SW-620 44.9 µM | T47D 27.7 µM | TK-10 > 100 µM | U-251 66.5 µM | UACC-257 52.6 µM | UACC-62 56.1 µM | UO-31 25.5 µM

COC(=O)/C=C\C(C#N)(C#N)/N=C/c1ccc(Br)cc1
inactive: A498 16.2 µM | A549 2.77 µM | ACHN 2.97 µM | BT-549 11.2 µM | CAKI-1 2.66 µM | CCRF-CEM 1.54 µM | COLO 205 3.37 µM | DU-145 12.1 µM | EKVX 14.2 µM | HCC 2998 16.9 µM | HCT-116 2.57 µM | HOP-62 16.7 µM | HOP-92 1.99 µM | HT-29 2.58 µM | Hs-578T 17.6 µM | IGROV-1 14.3 µM | K562 3.4 µM | KM12 14.4 µM | LOX IMVI 1.85 µM | M14 7.26 µM | MCF7 3.52 µM | MDA-MB-231 4.08 µM | MDA-MB-435 7 µM | MDA-N 5.71 µM | Malme-3M 3.24 µM | NCI-H226 6.4 µM | NCI-H23 14.9 µM | NCI-H460 19.6 µM | NCI/ADR-RES 20.2 µM | OVCAR-3 12 µM | OVCAR-4 8.83 µM | OVCAR-5 14.1 µM | OVCAR-8 5.47 µM | PC-3 13.4 µM | RPMI-8226 2.38 µM | RXF 393 4.92 µM | SF-268 15.5 µM | SF-295 18.2 µM | SK-MEL-28 15.4 µM | SK-MEL-2 19.3 µM | SK-MEL-5 1.5 µM | SK-OV-3 18.8 µM | SN12C 5.42 µM | SNB-19 2.74 µM | SNB-75 15 µM | SR 5.42 µM | SW-620 2.76 µM | T47D 3.63 µM | TK-10 2.45 µM | U-251 13.6 µM | UACC-257 14.8 µM | UACC-62 11.3 µM | UO-31 4.36 µM
active: 786-0 1.02 µM | HL-60 0.0389 µM | MOLT-4 0.673 µM | NCI-H522 0.489 µM
2.94 µM: HCT-15
